System: KRAS PDC tumor spheroids (HUVEC+MSC), viability
Assay: Anticancer human tumor 254851-301-R-J1-PDC patient-derived colon carcinoma cell line growth inhibition [KRAS2]
Conditions: for IC50: curve of first compound; for viability, T/C: stronger effect = lower value
Excerpt: Multicellular complex tumor spheroid response to RAS pathway inhibitors in combination with a targeted agents in patient-derived cell lines with oncogenic KRAS variants from multiple cancer types
A high-throughput screen of multi-cell type tumor spheroids was designed to identify active combinations of targeted small molecules and KRAS pathway inhibitors. Complex spheroids include a stromal component modeled by human endothelial cells (HUVEC) and fibroblasts modeled by human mesenchymal stem cells (MSCs). The concentration ranges selected for each drug and investigational agent were based upon clinically achievable concentrations if the clinical Cmax of the agent was known.
Compounds. The drugs and investigational agents: BI-3406 (NSC825286), BAY-293 (NSC824723), batoprotafib (TNO155; NSC825523), sotorasib (AMG 510; NSC818433), MRTX1257 (NSC819558), elimusertib (BAY 1895344; NSC800525), molibresib (GSK525762; NSC774829), temuterkib (LY3214996; NSC803410), venetoclax (NSC766270), alisertib (NSC759677), olaparib (NSC753686), talazoparib (NSC767125), erdafitinib (NSC781556), ipatasertib (NSC767898), cabozantinib (NSC761068), nintedanib (NSC756659), abemaciclib (NSC768073), docetaxel (NSC628503), trametinib (NSC758246), and sapanisertib (NSC764658) were obtained from the National Cancer Institute (NCI) Developmental Therapeutics Program Chemical Repository. The FDA-approved anticancer drug set is available from the Developmental Therapeutics Program. […] The stock solutions were prepared in dimethyl sulfoxide (DMSO, Sigma-Aldrich, St. Louis, MO, cat. D2650) at 800-fold the tested concentration and stored at -70 degrees C prior to their use. All drugs and investigational agents were tested over a range starting from a high concentration at or near the clinical Cmax and decreasing in half-log increments. If the clinical Cmax for an agent had not been determined, the highest concentration tested was 10 microM.
Cell Culture. All cells were maintained in an incubator at 37 degrees C and 5% CO2 with 95% humidity. The PDC lines were cultured according to standard operating procedures established by the NCI PDMR (https://pdmr.cancer.gov/sops/default.htm). Briefly, all PDCs were thawed and cultured in Matrigel-coated flasks prepared with a working solution of 1X Ham's F-12 nutrient mix, without supplementation (Invitrogen, Waltham, MA, cat. 11765054), 100 U/mL penicillin-streptomycin (Invitrogen, cat. 15140122), and 2.5% Matrigel (Corning Inc., Corning, NY, cat. 354248) for the first three passages. All PDCs were cultured in complete DMEM/F-12 media containing advanced DMEM/F-12 (Invitrogen, cat. 12634028), 4.9% defined fetal bovine serum, heat inactivated (HyClone Laboratories Inc., Logan, UT, cat. SH30070.03HI), 389 ng/mL hydrocortisone (Sigma-Aldrich, cat. H4001), 9.7 ng/mL human EGF recombinant protein (Invitrogen, cat. PHG0313), 23.4 microg/mL adenine (Sigma-Aldrich, cat. A2786), 97.3 U/mL penicillin-streptomycin (Invitrogen, cat. 15140122), 1.9 mM L-glutamine (Invitrogen, cat. 25030081), and 9.7 microM Y-27632 dihydrochloride (Tocris Bioscience, Bristol, United Kingdom, cat. 1254). The PDCs were cultured in complete DMEM/F12 media without 9.7 microM Y-27632 dihydrochloride for at least two passages prior to the screen. The established cell line HOP-62 was cultured in RPMI 1640 medium, HEPES (Invitrogen, cat. 22400105) with 10% defined fetal bovine serum (HyClone Laboratories Inc., cat. SH30070.03) and 2 mM L-glutamine (Invitrogen, cat. 25030081). The pooled donor HUVEC were cultured in endothelial cell growth medium 2 (PromoCell, Heidelberg, Germany, cat. C-22011) and the hMSC were cultured in mesenchymal stem cell growth medium 2 (PromoCell, cat. C-28009). For all experiments, HUVEC and hMSC were used at passages </=5, while the malignant cell lines were used at passages </=15. […]

[1] = second compound 0.1 µM, first compound 0.0316 µM
[2] = second compound 0.1 µM, first compound 0.1 µM
[3] = second compound 0.1 µM, first compound 0.316 µM
[4] = second compound 0.1 µM, first compound 1 µM
[5] = second compound 0.1 µM, first compound 3.16 µM
[6] = second compound 0.1 µM, first compound 10 µM
[7] = second compound 0.316 µM, first compound 0.0316 µM
[8] = second compound 0.316 µM, first compound 0.1 µM
[9] = second compound 0.316 µM, first compound 0.316 µM
[10] = second compound 0.316 µM, first compound 1 µM
[11] = second compound 0.316 µM, first compound 3.16 µM
[12] = second compound 0.316 µM, first compound 10 µM
[13] = second compound 1 µM, first compound 0.0316 µM
[14] = second compound 1 µM, first compound 0.1 µM
[15] = second compound 1 µM, first compound 0.316 µM
[16] = second compound 1 µM, first compound 1 µM
[17] = second compound 1 µM, first compound 3.16 µM
[18] = second compound 1 µM, first compound 10 µM
[19] = second compound 3.16 µM, first compound 0.0316 µM
[20] = second compound 3.16 µM, first compound 0.1 µM
[21] = second compound 3.16 µM, first compound 0.316 µM
[22] = second compound 3.16 µM, first compound 1 µM
[23] = second compound 3.16 µM, first compound 3.16 µM
[24] = second compound 3.16 µM, first compound 10 µM
[25] = second compound 10 µM, first compound 0.0316 µM
[26] = second compound 10 µM, first compound 0.1 µM
[27] = second compound 10 µM, first compound 0.316 µM
[28] = second compound 10 µM, first compound 1 µM
[29] = second compound 10 µM, first compound 3.16 µM
[30] = second compound 10 µM, first compound 10 µM
[31] = second compound 0.1 µM, first compound 0.01 µM
[32] = second compound 0.316 µM, first compound 0.01 µM
[33] = second compound 1 µM, first compound 0.01 µM
[34] = second compound 3.16 µM, first compound 0.01 µM
[35] = second compound 10 µM, first compound 0.01 µM
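Further: spheroids exposed to compounds for seven days before readout.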
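Wherever viability, T/C is given: 100% = DMSO vehicle control luminescence of the spheroids.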

| SMILES | IC50 (second compound 0.1 µM) [nM] | IC50 (second compound 0.316 µM) [nM] | IC50 (second compound 1 µM) [nM] | IC50 (second compound 3.16 µM) [nM] | IC50 (second compound 10 µM) [nM] | viability, T/C [1] [%] | viability, T/C [2] [%] | viability, T/C [3] [%] | viability, T/C [4] [%] | viability, T/C [7] [%] | viability, T/C [8] [%] | viability, T/C [9] [%] | viability, T/C [10] [%] | viability, T/C [13] [%] | viability, T/C [14] [%] | viability, T/C [15] [%] | viability, T/C [16] [%] | viability, T/C [19] [%] | viability, T/C [20] [%] | viability, T/C [21] [%] | also measured |
| --- | --- | --- | --- | --- | --- | --- | --- | --- | --- | --- | --- | --- | --- | --- | --- | --- | --- | --- | --- | --- | --- |
| CC(C)NCC(C(=O)N1CCN(c2ncnc3c2C(C)CC3O)CC1)c1ccc(Cl)cc1 (stereo not given) + C=CC(=O)N1CCN(c2nc(=O)n(-c3c(C)ccnc3C(C)C)c3nc(-c4c(O)cccc4F)c(F)cc23)C(C)C1 | > 10000 | > 10000 | > 10000 | > 10000 | > 10000 | 98.2 | 105 | 92.1 | 98.6 | 97.4 | 92.6 | 91.7 | 96.4 | 96.9 | 99.9 | 93 | 86.1 | 98.1 | 105 | 95.5 | viability, T/C [5]: 98.4%; viability, T/C [6]: 97%; viability, T/C [11]: 89.2%; viability, T/C [12]: 89.8%; viability, T/C [17]: 92.5%; viability, T/C [18]: 91.2%; viability, T/C [22]: 98.1%; viability, T/C [23]: 93.8%; viability, T/C [24]: 88.4%; viability, T/C [25]: 98.7%; viability, T/C [26]: 102%; viability, T/C [27]: 92.1%; viability, T/C [28]: 85.4%; viability, T/C [29]: 93.4%; viability, T/C [30]: 94.7% |
| CC1COCCN1c1cc(-c2ccnn2C)c2ccnc(-c3ccn[nH]3)c2n1 (stereo not given) + C=CC(=O)N1CCN(c2nc(=O)n(-c3c(C)ccnc3C(C)C)c3nc(-c4c(O)cccc4F)c(F)cc23)C(C)C1 | 299 | 288 | 369 | 79.7 | 186 | 96.8 | 65.9 | 50 | 35.4 | 96.8 | 74.2 | 47.6 | 32.1 | 85.3 | 66.9 | 51.6 | 36.7 | 70.3 | 45.2 | 27.3 | viability, T/C [31]: 112%; viability, T/C [5]: 22%; viability, T/C [32]: 96.5%; viability, T/C [11]: 23.5%; viability, T/C [33]: 87.6%; viability, T/C [17]: 20.8%; viability, T/C [34]: 74.5%; viability, T/C [22]: 29.7%; viability, T/C [23]: 34.8%; viability, T/C [35]: 103%; viability, T/C [25]: 87.3%; viability, T/C [26]: 59.5%; viability, T/C [27]: 40.8%; viability, T/C [28]: 29.9%; viability, T/C [29]: 22.5% |
| CCN1CCN(Cc2ccc(Nc3ncc(F)c(-c4cc(F)c5nc(C)n(C(C)C)c5c4)n3)nc2)CC1 + C=CC(=O)N1CCN(c2nc(=O)n(-c3c(C)ccnc3C(C)C)c3nc(-c4c(O)cccc4F)c(F)cc23)C(C)C1 | 960 | > 1000 | > 1000 | 707 | > 1000 | 96.9 | 83.2 | 73.2 | 47.1 | 90.4 | 82.6 | 73.2 | 50.9 | 92.8 | 78.2 | 75.7 | 48.4 | 97.1 | 59.7 | 71.4 | viability, T/C (second compound 0.1 µM, first compound 0.00316 µM): 114%; viability, T/C [31]: 101%; viability, T/C (second compound 0.316 µM, first compound 0.00316 µM): 113%; viability, T/C [32]: 107%; viability, T/C (second compound 1 µM, first compound 0.00316 µM): 104%; viability, T/C [33]: 101%; viability, T/C (second compound 3.16 µM, first compound 0.00316 µM): 89.5%; viability, T/C [34]: 87.4%; viability, T/C [22]: 42.6%; viability, T/C (second compound 10 µM, first compound 0.00316 µM): 96.4%; viability, T/C [35]: 105%; viability, T/C [25]: 102%; viability, T/C [26]: 83.2%; viability, T/C [27]: 73.8%; viability, T/C [28]: 56% |
| CCNC(=O)CC1N=C(c2ccc(Cl)cc2)c2cc(OC)ccc2-n2c(C)nnc21 (stereo not given) + C=CC(=O)N1CCN(c2nc(=O)n(-c3c(C)ccnc3C(C)C)c3nc(-c4c(O)cccc4F)c(F)cc23)C(C)C1 | > 10000 | > 10000 | > 10000 | > 10000 | > 10000 | 107 | 99.6 | 96.8 | 91 | 95 | 86.4 | 95.2 | 76.2 | 80.3 | 94.8 | 86.3 | 80.7 | 72.3 | 76.1 | 97 | viability, T/C [5]: 81%; viability, T/C [6]: 77.3%; viability, T/C [11]: 82.2%; viability, T/C [12]: 65.1%; viability, T/C [17]: 89.3%; viability, T/C [18]: 74.2%; viability, T/C [22]: 84.5%; viability, T/C [23]: 79.9%; viability, T/C [24]: 59.4%; viability, T/C [25]: 105%; viability, T/C [26]: 96.2%; viability, T/C [27]: 95.6%; viability, T/C [28]: 91.2%; viability, T/C [29]: 86%; viability, T/C [30]: 67.8% |
